Results published in patent publication US6930103B2, “Use of vasopeptidase inhibitors in the treatment of metabolic diseases, nephropathy and advanced glycation end-product associated diseases” (Aventis Pharma Deutschland GmbH, priority 2002, dated 2005).

Assays:
Goto-Kakizaki (GK) rats = assay: Albumin and creatinine excretion in Goto-Kakizaki (GK) rats; format: in vivo, rat; settings: start at age 6 months, mean
Description: The albumin and creatinine excretion in Goto-Kakizaki (GK) rats was determined. GK rats are a model for Type II diabetes. One group was left untreated, one was treated with the ACE/NEP inhibitor of formula (II-B) and one group was treated with the ACE inhibitor ramipril. [table]

[1] = system: Zucker Diabetic Fatty (ZDF) Rats (ZDF Gmi fa/fa); assay: Urinary excretion of albumin and creatinine in ZDF rats treated from 10 to 37 weeks of age; format: in vivo, rat; settings: for Urine excretion Albumin / Urine excretion Albumin/Creatinine: ZDF rats, mean
Description: The protein and creatinine excretion in the urine of male Zucker Diabetic Fatty (ZDF) Rats (ZDF Gmi fa/fa) and heterozygous control animals (ZDF Gmi −/+) of 10, 17, 27 and 37 weeks age was determined. In further groups, diabetic rats were chronically given either ramipril (1 mg/kg/day, in drinking water) or a compound of formula (II-B) (30 mg/kg/day, in food) over a period from 10 to 37 weeks. The animals were sacrificied after 37 weeks, and their kidneys examined histologically.

[2] = system: Zucker diabetic fatty rats; assay: HbA1c analysis in ZDF rats; format: in vivo, rat; settings: for HbA1c, mean: ZDF rats
Description: Blood glucose and HbA1c was measured in 10- and 17-week-old male Zucker diabetic fatty rats (Genetic Model Inc.), control rats (Genetic Model Inc.) and male ZDF rats treated for seven weeks with 30 mg/kg/d of compound (II-B), 35 mg/kg/d of compound (III-B) and 1 mg/kg/d ramipril. Fifteen animals were analyzed in each group.
To obtain blood samples for HbA1c determination, disposable capillary tubes were used. HbA1c values were obtained from hemolyzed whole blood samples with a turbidimetric inhibition immunoassay (Tina-quant, Roche Diagnostics GmbH) and hemoglobin concentrations were determined in a second channel on an automated clinical chemistry analyzer (Boehringer Mannheim/Hitachi 912). HbA1c concentration in percent were calculated from HbA1c to total hemoglobin.

ZDF rats [3] = assay: Dot blot analysis of kidney AGE subtypes (CML, CEL, pentosidine) in ZDF rats; format: in vivo, rat
Description: Kidney AGE values were determined by Dot blot analysis (Stracke et al., Exp. Clin. Endocrinol. Diabets 2002, 109, 330-336) and Reversed-phase high performance liquid chromatography or RP-HPLC (Drusch et al., Food Chem. 1999, 65, 547-553).
Kidney-samples for the dot blot analysis were obtained from 17-week-old male ZDF rats, control rats and ZDF rats treated for seven weeks with 30 mg/kg/d of compound (II-B) and 35 mg/kg/d of compound (III-B). Three animals of each group were sacrificed, the kidneys removed and immediately frozen in liquid nitrogen. Grinding of the kidneys was performed in liquid nitrogen using a freezer mill (Freezer 6750, C3 Analysetechnik GmbH). Kidney sample (10 mg) was dissolved in 1 ml phosphate buffered saline (PBS containing 0.5 g/l Tween 20, 0.5 mM PMSF, […]). The solution was treated two times for five seconds with an ultrasonic cell disrupter (45% power, Bandolin Sonoplus HD 2070), centrifuged for 20 minutes at 4000 rpm and the supernatant was used for dot blot analysis. The nitrocellulose membrane was placed in the dot blot apparatus and washed twice with Tris Buffered Saline (TBS), 100 μl TBS/well. For each sample, 10 μg protein (protein concentration of the samples were determined with the DC Protein Assay, Bio Rad) was diluted in 100 μl TBS and loaded on to the nitrocellulose membrane (Amersham). The membrane was incubated over night in TBS with Tween 20 (TBST; 20 mM Tris, 137 mM NaCl, 0.05% v/v Tween 20) with 5% non-fat dry milk at 4° C. and incubated for 1 hour at room temperature using the following antibody concentration: anti-CML 011 (Biologo) 0.25 μg/ml, anti-CEL (Biologo) 0.25 μg/ml and anti-pentosidine 012 (Biologo) 0.25 μg/ml. After extensive washing in TBST with 5% non-fat dry milk, membranes were exposed to […] anti-mouse IgG antibodies (Dianova) for one hour at room temperature. Membranes were washed again and exposed to the enhanced chemofluorescence detection system (Amersham) according to manufacturer's instructions. Relative fluorescence was determined with the Fluor-Imager 595 (Molecular Dynamics) and quantified using the Image-Quant software. Results were expressed in relative fluorescence (rf) times 10^5 (rf*10^5).

ZDF rats [4] = assay: Urinary albumin/creatinine in ZDF rats, treatment starting at an animal age of 6 months; format: in vivo, rat; settings: start at age 6 months, mean
Wistar rats = assay: Albumin and creatinine excretion in Wistar rats (non-diabetic nephropathy); format: in vivo, rat; settings: for Albumin/Creatinine: Wistar rats, start at age 6 months, mean
Description: The albumin and creatinine excretion in Wistar rats was determined. One group was left untreated, one was treated with the ACE/NEP inhibitor of formula (II-B) and one group was treated with the ACE inhibitor ramipril. Wistar rats are non-diabetic and develop proteinuria and structural kidney damage during adult life. Wistar rats are therefore a model for non-diabetic nephropathy. [table]

[5] = system: isolated aortic rings of rabbits; assay: Relaxation of aortic rings by acetylcholine in rabbits fed an atherogenic diet; format: in vivo, White New Zealand rabbits; settings: for Relaxation of aortic rings by acetylcholine: varied diet rabbits, mean ± SEM
Text: It was shown in the atherogenic rabbit model (White New Zealand rabbits were fed with 0.25% cholesterol plus 3% coconut oil) that even a short 6 week period of an atherogenic diet leads to sustained endothelial dysfunction, even though the animals received a normal diet for 3 months thereafter. […] The endothelium-dependent relaxation of isolated aortic rings of rabbits as well as the release of nitric oxide and superoxide from endothelial cells serve as measures of endothelial dysfunction. […] (II-B) [table]

[6] = 17-week-old ZDF rats treated for seven weeks, dot blot

CC(=O)S[C@H](C(=O)N[C@H]1Cc2ccccc2[C@H]2CCC[C@@H](C(=O)O)N2C1=O)C(C)C [cpd. (II-B)]
Albumin/Creatinine (Goto-Kakizaki (GK) rats; 6 weeks treatment): 17.70 mg/mmol
Albumin/Creatinine (Goto-Kakizaki (GK) rats; 12 weeks treatment): 24.28 mg/mmol
Albumin/Creatinine (Goto-Kakizaki (GK) rats; Basal): 103.95 mg/mmol
Urine excretion Albumin ([1]; week 0 of treatment): 0.27 mg/kg/h
Urine excretion Albumin/Creatinine ([1]; week 0 of treatment): 48.56 mg/mmol
Urine excretion Albumin ([1]; week 7 of treatment): 0.09 mg/kg/h
Urine excretion Albumin/Creatinine ([1]; week 7 of treatment): 14.30 mg/mmol
Urine excretion Albumin ([1]; week 17 of treatment): 0.41 mg/kg/h
Urine excretion Albumin/Creatinine ([1]; week 17 of treatment): 44.63 mg/mmol
Urine excretion Albumin ([1]; week 27 of treatment): 1.39 mg/kg/h
Urine excretion Albumin/Creatinine ([1]; week 27 of treatment): 152.71 mg/mmol
Effect relative to the ACE inhibitor ramipril ([1]; nephroprotective effect, compared with ramipril): 6-8 fold
HbA1c values compared to the untreated ZDF rats ([2]; 17-week-old ZDF rats, in words): significantly lower
HbA1c, mean ([2]; age 10 weeks (start of treatment)): 5.69%
HbA1c, mean ([2]; age 17 weeks (treated for seven weeks)): 8.24%
HbA1c value compared with the ACE inhibitor ramipril ([2]; in words): lower values
AGE-subtype CEL in the kidneys (anti-CEL), mean (ZDF rats [3]; [6]): 50.24 rf * 10^5
AGE-subtype CML in the kidneys (anti-CML 011), mean (ZDF rats [3]; [6]): 32.62 rf * 10^5
AGE-subtype pentosidine in the kidneys (anti-pentosidine 012), mean (ZDF rats [3]; [6]): 44.99 rf * 10^5
Kidney AGE (Nε-(carboxymethyl)lysine or CML) values (ZDF rats [3]; diabetic rats, summary in words): normalizes
AGE values for subtype CEL compared to untreated ZDF rats (ZDF rats [3]; kidney, dot blot, in words): significantly less
AGE values for subtype CML compared to untreated ZDF rats (ZDF rats [3]; kidney, dot blot, in words): significantly less
AGE values for subtype pentosidine compared to untreated ZDF rats (ZDF rats [3]; kidney, dot blot, in words): significantly less
Albumin/Creatinine (ZDF rats [4]; 6 weeks treatment): 135.08 mg/mmol
Albumin/Creatinine (ZDF rats [4]; 12 weeks treatment): 100.86 mg/mmol
Albumin/Creatinine (ZDF rats [4]; Basal): 1330.99 mg/mmol
Albumin/Creatinine (Wistar rats; 6 weeks treatment): 18.07 mg/mmol
Albumin/Creatinine (Wistar rats; 12 weeks treatment): 21.21 mg/mmol
Albumin/Creatinine (Wistar rats; Basal): 130.45 mg/mmol
Nephroprotective effect compared with ramipril as determined by the extent of proteinuria (Wistar rats; non-diabetic model, in words): significantly higher nephroprotective effect than ramipril
Relaxation of aortic rings by acetylcholine ([5]; ACh 10^−5 mol/L after phenylephrine 10^−7 mol/L): 80.89 ± 6.82%
Relaxation of aortic rings by acetylcholine ([5]; ACh 10^−6 mol/L after phenylephrine 10^−7 mol/L): 76.4 ± 6.38%
Relaxation of aortic rings by acetylcholine ([5]; ACh 10^−7 mol/L after phenylephrine 10^−7 mol/L): 59.62 ± 6.43%
Relaxation of aortic rings by acetylcholine ([5]; ACh 10^−8 mol/L after phenylephrine 10^−7 mol/L): 19.9 ± 3.48%
Endothelial dysfunction and atherogenic changes in the blood vessels ([5]; atherogenic rabbit model, in words): both prevented and reversed
